From PMC11596630 (Molecules, 2024)
Read-outs that look alike come from different tables or passages of the source.

Columns and labels:
[1] = Cytotoxicity MTS assay, HepG2; type: cell-based; conditions: 24 h exposure
Description: (§1) The human hepatocyte carcinoma HepG2 (ECACC 85011430), human embryo kidney HEK293 (ECACC 85120602) and human neuroblastoma SH-SY5Y (ECACC 94030304) cell lines were obtained from the certified cell-bank European Collection of Authenticated Cell Cultures (ECACC) through Sigma-Aldrich (Steinheim, Germany). HepG2 and HEK293 cells were grown in EMEM and SH-SY5Y in DMEM-F12, as described previously, and cell cultivation and maintenance were conducted according to standard protocol. All media and supplements were purchased from Sigma-Aldrich, Steinheim, Germany.
(§2) The cytotoxic profiles of tested compounds were determined by measuring the succinate dehydrogenase mitochondrial activity of exposed cells. The commercially available MTS detection reagent assay (CellTiter 96® AQueous One Solution Cell Proliferation Assay, Promega, Madison, WI, USA) was used. The procedure followed a previously described protocol. Cells were exposed to compounds in a concentration range of 0.01–1000 µM for 24 h. DMSO (20%) was used as positive control to validate the method. After desired time of incubation at 37 °C in a 5% CO2 atmosphere, cells were washed with PBS buffer and 100 µL of EMEM or DMEM medium and 20 µL of MTS were added in each well, incubated up to 1 h after which the absorbance was read at 492 nm on an Infinite M200PRO plate reader (Tecan Austria GmbH, Salzburg, Austria). Data are presented as percentages of the inhibited cells to control untreated cells, i.e., the percentage of cytotoxicity.

recombinant human AChE = target: T1, recombinant human AChE (Homo sapiens, UniProt P22303); experiment: Inhibition of human AChE (Ellman method, Hunter–Downs Ki); type: biochemical; conditions: for Ki: human AChE, Ki ± SE, at least three experiments, ATCh substrate; for SI = Ki(BChE)/Ki(AChE): selectivity index, AChE over BChE
T1 construct: gift of Dr Florian Nachon, Armed Forces Biomedical Research Institute, Brétigny-sur-Orge, France
T1 sequence (P22303 32-614): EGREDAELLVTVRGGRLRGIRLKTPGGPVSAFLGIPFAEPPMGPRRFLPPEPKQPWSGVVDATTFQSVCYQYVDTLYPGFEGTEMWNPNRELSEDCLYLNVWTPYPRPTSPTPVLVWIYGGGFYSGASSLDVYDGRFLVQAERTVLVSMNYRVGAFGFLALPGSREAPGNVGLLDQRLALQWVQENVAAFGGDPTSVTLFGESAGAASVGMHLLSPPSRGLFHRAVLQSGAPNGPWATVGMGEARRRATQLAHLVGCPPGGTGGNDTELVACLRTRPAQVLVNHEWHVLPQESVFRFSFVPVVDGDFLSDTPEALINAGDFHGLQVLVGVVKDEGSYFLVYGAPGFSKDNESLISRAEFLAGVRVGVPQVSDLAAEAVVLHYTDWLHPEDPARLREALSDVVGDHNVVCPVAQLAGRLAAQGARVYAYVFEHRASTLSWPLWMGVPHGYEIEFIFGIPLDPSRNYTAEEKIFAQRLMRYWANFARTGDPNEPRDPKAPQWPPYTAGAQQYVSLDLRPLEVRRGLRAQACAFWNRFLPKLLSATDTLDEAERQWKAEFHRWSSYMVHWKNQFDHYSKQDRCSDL
Description: (§3) Acetylthiocholine (ATCh) and 5,5’-dithiobis(2-nitrobenzoic acid) (DTNB) were purchased from Sigma Chemical Co., St. Louis, MO, USA. ATCh was dissolved in water and DTNB in 0.1 M sodium phosphate buffer (pH 7.4). […] Purified human BChE and recombinant human AChE were kindly provided by Dr Florian Nachon (Département de Toxicologie, Armed Forces Biomedical Research Institute, Brétigny-sur-Orge, France). The enzymes were diluted in a phosphate sodium buffer 0.1 M (pH 7.4) containing 0.01% BSA.
(§4) Cholinesterase activity measurements, evaluation of Ki (dissociation constants of enzyme−inhibitor complex) and Ks constants (dissociation constants of enzyme−substrate complex) were performed following procedures described previously. Briefly, enzyme activity was measured spectrophotometrically using a slightly modified Ellman method. […] At least three concentrations of inhibitors for each substrate concentration were used in at least three experiments.
(§5) The y-intercept determines the enzyme–inhibitor dissociation constants (Ki), while the x-intercept determines the enzyme–substrate dissociation constant, KS [57].

[2] = Cytotoxicity MTS assay, HEK293; type: cell-based; conditions: 24 h exposure
Description: as §1, §2

[3] = FRAP assay (ferric reducing antioxidant power); conditions: 10 µM compound
Description: The in vitro antioxidant activity of tested compounds was evaluated using the FRAP assay following a procedure described earlier. […] Trolox and butylated hydroxytoluene (BHT) were used as standard antioxidants. The absorbance was recorded at 593 nm using a microplate reader (SpectraMax iD3, Molecular Devices, San Jose, CA, USA) against a blank. All measurements were taken in three independent triplicates in at least three independent experiments. FRAP values, denominating the reduction of ferric-tripyridyltriazine (Fe^3+-TPTZ) to ferrous tripyridyltriazine (Fe^2+-TPTZ) by the tested compounds, were calculated on the basis of a standard curve obtained using […].

purified human BChE = target: T2, purified human BChE (Homo sapiens, UniProt P06276); experiment: biochemical; type: biochemical; conditions: for Ki: human BChE, Ki ± SE, at least three experiments, ATCh substrate
T2 construct: gift of Dr Florian Nachon, Armed Forces Biomedical Research Institute, Brétigny-sur-Orge, France
T2 sequence (P06276 29-602): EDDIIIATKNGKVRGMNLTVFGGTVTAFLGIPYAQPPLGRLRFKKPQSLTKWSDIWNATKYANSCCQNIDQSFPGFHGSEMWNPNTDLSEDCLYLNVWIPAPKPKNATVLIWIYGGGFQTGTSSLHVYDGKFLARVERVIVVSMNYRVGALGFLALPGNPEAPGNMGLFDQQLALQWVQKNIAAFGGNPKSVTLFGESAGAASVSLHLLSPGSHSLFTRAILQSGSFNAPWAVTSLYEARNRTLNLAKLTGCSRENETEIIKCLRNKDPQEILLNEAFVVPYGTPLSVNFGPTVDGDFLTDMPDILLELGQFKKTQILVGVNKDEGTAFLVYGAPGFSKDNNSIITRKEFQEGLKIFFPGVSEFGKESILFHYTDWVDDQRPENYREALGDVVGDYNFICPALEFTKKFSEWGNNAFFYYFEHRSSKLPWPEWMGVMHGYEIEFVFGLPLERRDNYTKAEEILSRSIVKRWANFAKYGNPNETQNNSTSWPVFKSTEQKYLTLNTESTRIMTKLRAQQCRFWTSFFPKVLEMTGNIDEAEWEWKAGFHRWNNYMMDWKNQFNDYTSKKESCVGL
Description: as §3, §4, §5

[4] = Cytotoxicity MTS assay, SH-SY5Y; type: cell-based; conditions: 24 h exposure
Description: HepG2 and HEK293 cells were grown in EMEM and SH-SY5Y in DMEM-F12, as described previously, and cell cultivation and maintenance were conducted according to standard protocol. All media and supplements were purchased from Sigma-Aldrich, Steinheim, Germany.
as §2

[5] = Cytotoxicity MTS assay, over all three cell lines; type: cell-based, human; conditions: human, HEK293 and SH-SY5Y cells; HepG2, HEK293, SH-SY5Y; 24 h exposure
Description: as §1, §2

[6] = test system: HepG2, HEK293 and SH-SY5Y; experiment: Cytotoxicity MTS assay, over all three cell lines; type: cell-based, human; conditions: 24 h exposure
Description: as §1, §2

[7] = human, SH-SY5Y cells, IC50 ± SE

Row | Structure (SMILES) | IC50 at 24 h ([1]; human, HepG2 cells, IC50 ± SE) [mM] | Ki (recombinant human AChE) [nM] | SI = Ki(BChE)/Ki(AChE) (recombinant human AChE) | IC50 at 24 h ([2]; human, HEK293 cells, IC50 ± SE) [mM] | FRAP value / reducing power compared with Trolox and BHT [3] | Ki (purified human BChE; read-out: Ki BChE) [µM] | IC50 at 24 h [4, 7] [mM] | IC50 at 24 h [5] [µM] | IC50 at 24 h ([1]; human, HepG2 cells, in mM) [mM] | IC50 at 24 h ([2]; human, HEK293 cells, in mM) [mM] | IC50 at 24 h ([4]; human, SH-SY5Y cells, in mM) [mM] | Toxicity to any tested cell type [6] | FRAP value relative to the FRAP value for BHT [3] | IC50 at 24 h ([1]; in mM) [mM] | IC50 at 24 h ([2]; in mM) [mM] | Ki (purified human BChE; Ki BChE) [µM] | IC50 at 24 h ([4]; IC50 ± SE) [mM] | AChE inhibition potency, times lower compared to 2 (recombinant human AChE; fold, compared to compound 2) | Selectivity to BChE (purified human BChE; BChE over AChE)
1 | CCN(CC)Cc1cc(Nc2ccnc3cc(F)ccc23)ccc1O [Compound 1] | 0.219 ± 0.028 | 170 ± 10 | 77 | 0.09 ± 0.022 | not more than 50% lower than those of either Trolox or BHT | 13 ± 1 | 0.09 ± 0.01 |  |  |  |  |  |  |  |  |  |  |  | 
2 | CCN(CC)Cc1cc(Nc2ccnc3cccc(C(=O)O)c23)ccc1O [Compound 13] | 0.546 ± 0.046 | 1300 ± 100 | 12 | 0.103 ± 0.008 |  | 16 ± 1 | 0.148 ± 0.017 | ≥ 100 |  |  |  |  |  |  |  |  |  |  | 
3 | CCN(CC)Cc1cc(Nc2ccnc3c(F)cccc23)ccc1O [Compound 8] |  | 510 ± 30 | 11 | 0.134 ± 0.047 |  | 5.4 ± 0.5 | 0.085 ± 0.005 |  | ≥ 1 |  |  |  |  |  |  |  |  |  | 
4 | CCN(CC)Cc1cc(Nc2ccnc3cc(C(F)(F)F)ccc23)ccc1O [Compound 2] |  | 75 ± 3 | 97 |  |  | 7.3 ± 0.8 |  |  | ≥ 1 | ≥ 1 | ≥ 1 | not toxic to any tested cell type |  |  |  |  |  |  | 
5 | CCN(CC)Cc1cc(Nc2ccnc3cc([N+](=O)[O-])ccc23)ccc1O [Compound 4] | 0.039 ± 0.006 | 84 ± 3 |  | 0.033 ± 0.003 |  | 14 ± 1 | 0.026 ± 0.004 |  |  |  |  |  |  |  |  |  |  |  | 
6 | CCN(CC)Cc1cc(Nc2ccnc3cc(OC)ccc23)ccc1O [Compound 5] | 0.1 ± 0.01 | 25 ± 1 | 300 | 0.037 ± 0.011 | not more than 50% lower than those of either Trolox or BHT | 7.6 ± 0.4 | 0.036 ± 0.005 |  |  |  |  |  | higher than 50% |  |  |  |  |  | 
7 | CCN(CC)Cc1cc(Nc2ccnc3cc(Cl)ccc23)ccc1O [AMQ, Amodiaquine, reference compound] |  | 46 ± 1 |  |  |  |  |  |  |  |  |  |  |  | ≥ 1 | ≥ 1 | 9.1 ± 0.7 | 0.134 ± 0.036 |  | 
8 | CCN(CC)Cc1cc(Nc2ccnc3cc(C#N)ccc23)ccc1O [Compound 3] | 0.471 ± 0.019 | 78 ± 4 |  | 0.103 ± 0.003 | not more than 50% lower than those of either Trolox or BHT | 19 ± 1 | 0.098 ± 0.003 | ≥ 100 |  |  |  |  |  |  |  |  |  |  | 
9 | CCN(CC)Cc1cc(Nc2ccnc3c(C(F)(F)F)cccc23)ccc1O [Compound 10] |  | 1200 ± 100 | 17 | 0.087 ± 0.033 |  | 20 ± 1 | 0.088 ± 0.008 |  | ≥ 1 |  |  |  |  |  |  |  |  |  | 
10 | CCN(CC)Cc1cc(Nc2cc(C(F)(F)F)nc3ccccc23)ccc1O [Compound 11] | 0.232 ± 0.068 | 7600 ± 300 | 0.22 | 0.025 ± 0.004 | not more than 50% lower than those of either Trolox or BHT | 1.7 ± 0.1 | 0.035 ± 0.005 |  |  |  |  |  |  |  |  |  |  | 100 | about five times more selective to BChE
11 | CCN(CC)Cc1cc(Nc2ccnc3ccc(F)cc23)ccc1O [Compound 7] | 0.529 ± 0.029 | 51 ± 2 |  | 0.159 ± 0.041 | not more than 50% lower than those of either Trolox or BHT | 11 ± 1 | 0.181 ± 0.041 | ≥ 100 |  |  |  |  |  |  |  |  |  |  | 
12 | CCN(CC)Cc1cc(Nc2ccnc3ccc(C#N)cc23)ccc1O [Compound 12] | 0.276 ± 0.046 | 190 ± 10 |  | 0.088 ± 0.031 |  | 21 ± 1 | 0.092 ± 0.017 |  |  |  |  |  |  |  |  |  |  |  | 
13 | CCN(CC)Cc1cc(Nc2ccnc3ccccc23)ccc1O [Compound 6] |  | 230 ± 10 | 26 | 0.35 ± 0.04 |  | 5.9 ± 0.8 | 0.453 ± 0.012 | ≥ 100 | ≥ 1 |  |  |  | higher than 50% |  |  |  |  |  | 
14 | CCN(CC)Cc1cc(Nc2ccnc3ccc(C(F)(F)F)cc23)ccc1O [Compound 9] |  | 93 ± 3 |  |  |  | 14 ± 1 |  | ≥ 100 | ≥ 1 | ≥ 1 | ≥ 1 | not toxic to any tested cell type |  |  |  |  |  |  | 
15 | CCN(CCO)Cc1cc(Nc2ccnc3cc(Cl)ccc23)ccc1O [Compound 14] |  | 110 | 62 |  | greater potency than both Trolox and BHT | 6.8 ± 0.3 |  | ≥ 100 | ≥ 1 | ≥ 1 | ≥ 1 | not toxic to any tested cell type | higher than 50% |  |  |  |  |  | 
